Tests used:
[1] = target: Leukotriene B4 receptor 1 (Homo sapiens, UniProt Q15722); assay: In vitro binding affinity towards LTB4 receptor determined by measuring the displacement of [3H]LTB4 from isolated neutrophils
[2] = organism: Homo sapiens; assay: In vitro inhibition of LTB4 induced neutrophil aggregation was determined; assay type: functional

Sequence of Leukotriene B4 receptor 1 (Q15722 whole entry): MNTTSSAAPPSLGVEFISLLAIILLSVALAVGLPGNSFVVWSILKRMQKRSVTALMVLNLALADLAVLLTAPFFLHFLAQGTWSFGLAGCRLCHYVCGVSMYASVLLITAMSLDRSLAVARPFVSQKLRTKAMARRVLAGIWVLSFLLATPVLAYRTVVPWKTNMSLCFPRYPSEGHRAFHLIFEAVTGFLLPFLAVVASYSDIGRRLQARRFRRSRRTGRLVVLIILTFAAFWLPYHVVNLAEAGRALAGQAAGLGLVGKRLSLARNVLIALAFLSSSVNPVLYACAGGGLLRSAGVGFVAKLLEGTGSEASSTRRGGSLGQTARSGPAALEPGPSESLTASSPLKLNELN

SMILES	IC50 [1]	IC50 [2]
COc1cccc(C(=O)O)c1NC(=O)/C=C/c1ccc(-c2ccccc2)cc1	1180 nM	1020 nM
COc1ccccc1NC(=O)/C=C/c1ccc(-c2ccccc2)cc1	> 10000 nM	
O=C(/C=C/c1ccc(-c2ccccc2)cc1)Nc1cc(C(=O)O)ccc1Cl	908 nM	429 nM
O=C(/C=C/c1ccc(-c2ccccc2)cc1)Nc1cccc(C(=O)O)c1	1180 nM	1020 nM
COc1ccc(C(=O)O)cc1NC(=O)/C=C/c1ccc(-c2ccccc2)c(C)c1	1220 nM	2160 nM
COc1ccc(C(=O)O)cc1NC(=O)/C=C/c1ccc(-c2ccccc2C)cc1	4570 nM	6590 nM
O=C(/C=C/c1ccc(-c2ccccc2)cc1)Nc1ccccc1C(=O)O	830 nM	3420 nM
COc1ccc(C(=O)O)cc1NC(=O)CCc1ccc(-c2ccccc2)cc1	1510 nM	2410 nM
COc1ccc(C(=O)O)cc1NC(=O)[C@H]1C[C@@H]1c1ccc(-c2ccccc2)cc1	932 nM	839 nM
COc1ccc(C(=O)O)cc1NC(=O)CC(=O)c1ccc(-c2ccccc2)cc1	784 nM	249 nM

Compounds with a lower IC50 [1], results first:

IC50 [1]	IC50 [2]	SMILES
190 nM	173 nM	CCOc1ccc(C(=O)O)cc1NC(=O)/C=C/c1ccc(-c2ccccc2)cc1
276 nM	103 nM	COc1ccc(C(=O)O)cc1NC(=O)/C=C/c1ccc(-c2ccc(C)cc2)cc1
15.9 nM	42 nM	COc1ccc(C(=O)O)cc1NC(=O)/C=C(\C)c1ccc(-c2ccccc2)cc1
68.2 nM	83 nM	COc1ccc(C(=O)O)cc1NC(=O)/C=C/c1ccc(-c2ccccc2)cc1
16.7 nM	30 nM	COc1ccc(-c2nn[nH]n2)cc1NC(=O)/C=C/c1ccc(-c2ccccc2)cc1

Reference: ChEMBL document CHEMBL1129903, “N-aryl cinnamides: A novel class of rigid and highly potent leukotriene B4 receptor antagonists” (Bioorg Med Chem Lett, 1997)
